Reference: patent US20260306641A1, “HELICASE DEGRADERS” (priority 2023, published 2026)

Assays:
[1] = test system: T1, human CMG helicase (hCMG); experiment: hCMG helicase fork-unwinding (strand displacement) assay; type: biochemical
T1 construct: made in house; host or cells: High Five insect cells, baculovirus (11 viruses co-infected)
Description: The human CMG helicase was purified following the established and validated protocol of Hurwitz and colleagues(19,20), with minor modifications. A detailed description of the approach is shown here, to allow for comparisons to the methods described by the Hurwitz group.
High Five insect cells (2-3 million cells/ml, 1.5 L), were in cultured in a shaking incubator at 27° C. in suspension with ESF921 serum free medium (Expression Systems, CA; cat. #96-001-01), then co-infected for 60 hrs with 11 baculoviruses expressing human 6His2Flag-Cdc45, the human MCM hexamer (Mcm2, Mcm3, Mcm4, Mem5, Mcm6, Mcm7), and human GINS (GST-Sld5, Psf3, Psf2, and Psf1). Each virus was infected at an MOI of ~10 from individual virus stocks. Infected cells were harvested by centrifugation at 650×g for 5 min at 4° C., washed with cold PBS, frozen on dry ice, and stored at −80° C. until use. The cell pellet (~20 mL) was thawed on ice, resuspended in 45 ml Hypotonic Buffer [20 mM Hepes-NaOH (pH 7.5), 5 mM KCl, 1.5 mM MgCl2] with protease inhibitors (1 mM [COMPOUND LEFT OUT], 1 mM Benzamidine, 0.15 μM Aprotinin, 4 μM Leupeptin, and 1 μM Antipain), and kept on ice for 10 min before lysing by Dounce homogenization (tight fitting, 60 strokes). The cell extract was adjusted to 0.42 M potassium acetate and centrifuged at 43,000×g for 1 hr at 4° C. The cleared lysate was mixed with 0.75 ml glutathione beads (cat. #17-0756-05; GE Healthcare) pre-equilibrated with FEQ buffer [20 mM Hepes-NaOH (pH 7.5), 0.42 M potassium acetate, 5 mM KCl, 1.5 mM MgCl2] and incubated by rotation at 4° C. overnight. Following centrifugation at 290×g at 4° C., the bound glutathione beads were washed four times (15 min each wash) with 40 ml of FW buffer [20 mM Hepes-NaOH (pH 7.5), 0.42 M potassium acetate, 1 mM DTT, 1 mM EDTA, 0.01% NP40, 10% glycerol (vol/vol) with protease inhibitors as above] containing protease inhibitors (as above). Bound proteins were eluted at 4° C. three times (1 hr each elution) with 3.5 ml Q buffer [20 mM Hepes-NaOH (pH 7.5), 1 mM DTT, 1 mM EDTA, 0.01% NP40, 10% glycerol (vol/vol), and protease inhibitors as above] containing 0.15 M potassium acetate and 20 mM reduced glutathione. The eluted fractions were combined and applied to a HiTrap Q-Sepharose FF column (HiTrap Q FF 1 mL, cat. #17505301, Cytiva), pre-equilibrated 3× with 5 ml of Q buffer containing 0.15 M, 0.75 M, 0.15M potassium acetate, in sequence. The Q-Sepharose FF column was washed with 10 ml of FW buffer containing protease inhibitors (as above). The proteins were eluted with 10 ml of Q buffer containing 0.75 M potassium acetate. The eluted fraction was mixed with 0.15 ml of anti-Flag M2 affinity gel/beads and incubated while rotating at 4° C. overnight. After centrifugation at 290×g for 5 min at 4° C., the beads were washed three times with 10 ml PreScission buffer [50 mM Tris-HCl (pH 7.5), 0.15 M NaCl, 1 mM DTT, 1 mM EDTA] for 15 min at 4° C., and eluted at 4° C. three times (1 hr each elution) with 0.2 ml PreScission enzyme buffer containing 0.2 mg/ml 3×-Flag peptides. The combined eluates were incubated with 20 Units of PreScission Protease (GE Healthcare) and 0.1 mL glutathione beads for 4 hr at 4° C. The supernatant was layered onto a 15-40% glycerol gradient [25 mM Tris-HCl (pH 7.5), 50 mM NaCl, 1 mM DTT, 1 mM EDTA, 0.01% NP40, protease inhibitors as above] in a 5 mL ultra-centrifugation tube and centrifuged at 260,000×g for 14 hr at 4° C. Glycerol fractions (0.15 mL each fraction) were collected from bottom of tube and stored at −80° C. until use. Typically, fractions 6-9 contained complete hCMG (~750-800 kDa) and co-migrated with thyroglobulin.
Helicase fork-unwinding assays were performed at 37° C. for 1 hr in 20 μL reaction volumes using 2-4 μl of hCMG (~15-30 fmol), in a buffer consisting of 25 mM Hepes-NaOH (pH 7.5), 5 mM NaCl, 0.5 mM ATP, 10 mM magnesium acetate, 1 mM DTT, 0.1 mg/ml bovine serum albumin (BSA), and ~10 fmol of radiolabeled DNA forks (20). […]

[2] = test system: Cdk1 and Cdk2 targets (Rb, Cdc6, PP1a); experiment: Immunoblot of Cdk1/Cdk2-dependent targets, HaCaT cells; type: cell-based, human; conditions: extended exposure (18 hrs)
Description: Immunoblots of total proteins from synchronized HaCaT cells treated with compounds at time of release (0 hr; beginning of G1 phase) and collected after 18 hrs of exposure. (FIG. 5A) DDK-dependent phosphorylation sites on Mcm2 were analyzed with phospho-specific antibodies. (FIG. 5B) Cdk1- and Cdk2-dependent targets (Rb, Cdc6, and PP1α) were analyzed with phospho-specific antibodies.

[3] = test system: Flag-Mcm2 hCMG and replisome complexes from HEK-293T cells; experiment: Co-immunoprecipitation, HEK-293T cells expressing Flag-Mcm2; type: biochemical, human; conditions: 15 μM, 30 min; Flag IP
Description: Nuclear extracts were prepared from synchronized HaCaT cells after releasing into S-phase (at 20 hrs post release) or HEK-293T cells expressing stable Flag-Mcm2 protein (human). Cells from one 10 cm dish were resuspended in […] of Buffer A (10 mM Hepes-KOH pH 7.5, 10 mM KCl, 1.5 mM MgCl2, 0.34 M sucrose, 10% glycerol, protease inhibitors, and 0.1% Triton-X-100) and incubated on ice for 5 min. The nuclear pellet was obtained by centrifugation at 4,000 rpm at 4° C. for 5 min and washed with the Buffer A without Triton X-100. The nuclear extract was obtained by resuspending the nuclear pellet in […] of Buffer A containing 420 mM potassium acetate and 0.01% Triton X-100, and incubating at 4° C. for 1 hr. The final concentration of potassium acetate in nuclear extracts was adjusted to 200 mM for the co-immunoprecipitation assays. For the co-immunoprecipitation assays, […] of indicated antibody [anti-Mcm2, anti-Psf1, or rabbit IgG (Sigma)], or 30 mL of mouse IgG or anti-Flag agarose beads (Sigma), was incubated with […] of nuclear extract at 4° C. for 4 hrs. Protein A/G agarose beads (30 mL, Santa Cruz, sc-2003) were added and incubated for 1 hr with antibodies. […] Beads were washed in the same buffer and analyzed by immunoblotting with indicated antibodies.

T1 sequence (P49736 whole entry): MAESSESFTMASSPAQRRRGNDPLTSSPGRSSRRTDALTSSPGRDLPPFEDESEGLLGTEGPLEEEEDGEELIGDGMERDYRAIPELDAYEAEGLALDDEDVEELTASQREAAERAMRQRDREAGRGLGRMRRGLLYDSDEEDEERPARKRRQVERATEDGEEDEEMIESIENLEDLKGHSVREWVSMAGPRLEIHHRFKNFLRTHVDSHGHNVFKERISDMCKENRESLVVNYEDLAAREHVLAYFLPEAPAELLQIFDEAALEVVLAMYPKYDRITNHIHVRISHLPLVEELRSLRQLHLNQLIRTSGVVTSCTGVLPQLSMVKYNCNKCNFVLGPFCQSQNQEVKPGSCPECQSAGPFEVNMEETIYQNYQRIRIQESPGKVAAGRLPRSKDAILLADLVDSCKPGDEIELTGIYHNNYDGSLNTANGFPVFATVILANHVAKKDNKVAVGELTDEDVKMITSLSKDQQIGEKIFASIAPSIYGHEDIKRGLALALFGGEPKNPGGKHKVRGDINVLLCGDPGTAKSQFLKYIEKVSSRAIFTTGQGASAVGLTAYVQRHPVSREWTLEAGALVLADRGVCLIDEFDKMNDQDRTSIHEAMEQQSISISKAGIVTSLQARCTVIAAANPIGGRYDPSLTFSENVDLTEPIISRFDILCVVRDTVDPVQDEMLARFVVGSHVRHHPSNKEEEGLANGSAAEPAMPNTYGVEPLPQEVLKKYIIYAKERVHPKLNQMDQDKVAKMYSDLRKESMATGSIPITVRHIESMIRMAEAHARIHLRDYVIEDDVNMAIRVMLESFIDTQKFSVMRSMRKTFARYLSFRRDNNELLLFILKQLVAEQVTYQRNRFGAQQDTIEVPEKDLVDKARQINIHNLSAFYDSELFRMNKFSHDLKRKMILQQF
T1 sequence (P25205 whole entry, further chain): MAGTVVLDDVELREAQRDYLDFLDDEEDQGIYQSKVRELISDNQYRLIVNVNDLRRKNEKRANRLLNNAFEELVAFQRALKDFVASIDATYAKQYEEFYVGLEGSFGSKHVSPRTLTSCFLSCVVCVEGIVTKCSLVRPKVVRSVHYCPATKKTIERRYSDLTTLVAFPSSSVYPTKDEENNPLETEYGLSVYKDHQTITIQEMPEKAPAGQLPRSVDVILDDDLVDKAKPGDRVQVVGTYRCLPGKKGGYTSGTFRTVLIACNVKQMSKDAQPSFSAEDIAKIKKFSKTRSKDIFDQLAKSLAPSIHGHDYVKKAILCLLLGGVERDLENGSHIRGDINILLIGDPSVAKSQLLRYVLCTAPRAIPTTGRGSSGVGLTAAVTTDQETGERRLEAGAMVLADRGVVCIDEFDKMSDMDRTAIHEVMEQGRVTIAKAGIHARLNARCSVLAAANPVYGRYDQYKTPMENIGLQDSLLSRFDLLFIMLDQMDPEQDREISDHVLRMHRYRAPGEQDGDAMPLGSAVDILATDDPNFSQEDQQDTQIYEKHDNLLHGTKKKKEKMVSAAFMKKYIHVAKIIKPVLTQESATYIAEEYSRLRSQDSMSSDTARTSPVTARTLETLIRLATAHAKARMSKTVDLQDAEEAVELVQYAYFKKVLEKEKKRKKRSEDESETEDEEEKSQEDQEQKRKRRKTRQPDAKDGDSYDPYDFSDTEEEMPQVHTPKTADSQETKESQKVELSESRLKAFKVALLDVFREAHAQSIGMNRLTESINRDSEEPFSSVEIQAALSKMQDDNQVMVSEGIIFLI
T1 sequence (P33991 whole entry, further chain): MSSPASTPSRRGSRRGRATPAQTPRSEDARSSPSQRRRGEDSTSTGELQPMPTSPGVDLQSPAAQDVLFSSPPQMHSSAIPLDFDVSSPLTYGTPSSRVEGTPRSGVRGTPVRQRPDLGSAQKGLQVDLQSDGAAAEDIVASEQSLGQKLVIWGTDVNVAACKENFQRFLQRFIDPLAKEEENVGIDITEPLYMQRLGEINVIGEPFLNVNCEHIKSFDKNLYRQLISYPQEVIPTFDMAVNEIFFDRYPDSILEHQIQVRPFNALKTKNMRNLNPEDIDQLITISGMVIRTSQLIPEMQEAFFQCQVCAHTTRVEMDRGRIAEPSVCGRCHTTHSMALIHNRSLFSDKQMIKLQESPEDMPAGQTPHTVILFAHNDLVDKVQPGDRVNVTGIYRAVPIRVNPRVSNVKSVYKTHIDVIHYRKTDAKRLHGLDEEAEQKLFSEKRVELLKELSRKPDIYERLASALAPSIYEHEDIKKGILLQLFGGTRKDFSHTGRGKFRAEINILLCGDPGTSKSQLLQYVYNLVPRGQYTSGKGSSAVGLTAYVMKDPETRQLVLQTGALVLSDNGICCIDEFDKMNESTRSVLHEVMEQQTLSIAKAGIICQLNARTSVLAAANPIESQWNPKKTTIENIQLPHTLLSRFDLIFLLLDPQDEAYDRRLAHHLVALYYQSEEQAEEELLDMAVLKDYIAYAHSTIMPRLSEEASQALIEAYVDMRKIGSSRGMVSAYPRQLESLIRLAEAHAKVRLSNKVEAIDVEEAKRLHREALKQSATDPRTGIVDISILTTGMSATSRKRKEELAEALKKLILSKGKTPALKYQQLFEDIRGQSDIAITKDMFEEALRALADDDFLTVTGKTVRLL
T1 sequence (P33992 whole entry, further chain): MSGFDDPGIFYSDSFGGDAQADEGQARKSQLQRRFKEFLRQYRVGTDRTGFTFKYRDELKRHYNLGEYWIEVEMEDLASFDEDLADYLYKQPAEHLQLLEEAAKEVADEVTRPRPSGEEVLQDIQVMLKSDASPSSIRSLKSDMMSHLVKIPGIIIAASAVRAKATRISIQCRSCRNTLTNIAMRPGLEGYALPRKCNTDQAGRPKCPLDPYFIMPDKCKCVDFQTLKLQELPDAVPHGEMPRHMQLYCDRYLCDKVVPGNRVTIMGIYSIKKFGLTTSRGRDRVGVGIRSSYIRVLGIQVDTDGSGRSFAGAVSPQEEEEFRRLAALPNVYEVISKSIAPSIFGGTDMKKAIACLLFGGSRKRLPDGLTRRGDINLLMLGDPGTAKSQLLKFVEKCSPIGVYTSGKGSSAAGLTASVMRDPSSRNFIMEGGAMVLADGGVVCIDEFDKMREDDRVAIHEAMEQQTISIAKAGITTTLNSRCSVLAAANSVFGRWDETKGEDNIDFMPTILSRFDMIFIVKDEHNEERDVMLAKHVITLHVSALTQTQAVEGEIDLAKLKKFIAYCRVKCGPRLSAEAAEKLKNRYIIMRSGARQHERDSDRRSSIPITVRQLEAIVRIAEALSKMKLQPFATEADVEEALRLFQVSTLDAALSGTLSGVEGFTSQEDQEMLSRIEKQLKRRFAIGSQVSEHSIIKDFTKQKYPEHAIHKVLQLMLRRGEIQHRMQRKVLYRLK
T1 sequence (Q14566 whole entry, further chain): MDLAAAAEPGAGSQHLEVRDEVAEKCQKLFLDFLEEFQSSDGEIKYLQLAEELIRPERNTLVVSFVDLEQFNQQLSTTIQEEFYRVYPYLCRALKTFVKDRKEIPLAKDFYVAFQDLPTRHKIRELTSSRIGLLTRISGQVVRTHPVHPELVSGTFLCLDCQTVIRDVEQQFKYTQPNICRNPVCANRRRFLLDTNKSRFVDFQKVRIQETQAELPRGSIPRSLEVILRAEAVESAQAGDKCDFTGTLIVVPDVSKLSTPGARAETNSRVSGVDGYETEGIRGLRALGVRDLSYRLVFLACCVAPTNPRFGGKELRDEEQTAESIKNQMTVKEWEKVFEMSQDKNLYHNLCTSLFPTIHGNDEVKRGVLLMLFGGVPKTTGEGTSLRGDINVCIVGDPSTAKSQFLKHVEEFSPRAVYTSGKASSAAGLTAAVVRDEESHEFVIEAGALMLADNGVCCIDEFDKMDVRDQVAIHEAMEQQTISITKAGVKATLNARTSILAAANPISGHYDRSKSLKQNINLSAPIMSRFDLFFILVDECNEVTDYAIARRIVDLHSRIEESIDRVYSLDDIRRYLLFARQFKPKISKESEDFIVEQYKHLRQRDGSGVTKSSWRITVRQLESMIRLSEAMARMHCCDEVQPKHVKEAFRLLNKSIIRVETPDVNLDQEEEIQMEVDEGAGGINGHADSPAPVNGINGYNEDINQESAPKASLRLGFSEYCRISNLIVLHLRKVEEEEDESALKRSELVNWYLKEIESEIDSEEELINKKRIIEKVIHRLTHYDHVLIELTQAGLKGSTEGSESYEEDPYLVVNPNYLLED
T1 sequence (P33993 whole entry, further chain): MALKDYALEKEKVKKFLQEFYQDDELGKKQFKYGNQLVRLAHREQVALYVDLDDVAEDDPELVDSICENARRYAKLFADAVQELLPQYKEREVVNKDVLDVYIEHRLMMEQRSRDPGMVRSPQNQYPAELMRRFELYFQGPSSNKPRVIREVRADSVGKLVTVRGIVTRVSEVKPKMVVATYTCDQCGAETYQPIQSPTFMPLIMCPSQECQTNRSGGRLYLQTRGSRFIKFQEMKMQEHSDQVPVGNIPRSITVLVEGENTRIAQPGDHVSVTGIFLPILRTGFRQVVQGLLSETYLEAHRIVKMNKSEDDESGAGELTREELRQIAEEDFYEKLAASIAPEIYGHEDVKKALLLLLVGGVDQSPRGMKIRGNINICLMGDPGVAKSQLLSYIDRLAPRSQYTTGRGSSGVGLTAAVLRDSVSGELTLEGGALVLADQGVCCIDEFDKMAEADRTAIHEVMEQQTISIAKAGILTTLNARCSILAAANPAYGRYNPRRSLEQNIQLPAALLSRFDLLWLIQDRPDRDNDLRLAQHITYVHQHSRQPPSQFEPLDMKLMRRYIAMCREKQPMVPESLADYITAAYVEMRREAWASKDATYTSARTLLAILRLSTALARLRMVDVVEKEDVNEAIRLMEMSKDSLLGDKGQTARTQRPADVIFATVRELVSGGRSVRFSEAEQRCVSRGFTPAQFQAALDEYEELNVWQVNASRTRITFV

Row | SMILES | inhibition of hCMG helicase activity, SAR set ([1]; 500 μM compound) | phosphorylation of Cdk2 targets Rb, Cdc6 (S54P) and Cdk1 target PP1a [2] | MCM interactions [3] | Psf1, Cdc45 and Ctf4 association with Flag-Mcm2 [3] | hCMG helicase inhibition in secondary strand-displacement assay ([1]; 500 μM compound) | hCMG helicase activity inhibition ([1]; fork-unwinding, ~15 fmol hCMG, 0.5 mM ATP) | mode of inhibition of hCMG helicase activity ([1]; role: inhibitor, CA1 2.5 μM, increasing ATP)
1 | CO[C@@H]1[C@@H](OC(N)=O)[C@@H](O)[C@H](Oc2ccc3c(O)c(NC(=O)c4ccc(O)c(CC=C(C)C)c4)c(=O)oc3c2C)OC1(C)C [novobiocin] | only a small level of inhibition |  |  |  |  |  | 
2 | CO[C@@H]1[C@@H](OC(=O)c2ccc(C)[nH]2)[C@@H](O)[C@H](Oc2ccc3c(O)c(NC(=O)c4c[nH]c(C(=O)Nc5c(O)c6ccc(O[C@@H]7OC(C)(C)[C@H](OC)[C@@H](OC(=O)c8ccc(C)[nH]8)[C@H]7O)c(C)c6oc5=O)c4C)c(=O)oc3c2C)OC1(C)C [CA1] | potently inhibit the hCMG | no effect on these substrates | does not disrupt MCM interactions | displaces Psf1, Cdc45, and Ctf4 from Flag-Mcm2 | effective hCMG helicase inhibitors | 100% | classic ATP-competitive mechanism
